Laboratory results published in patent publication US10633389B2, “CARM1 inhibitors and uses thereof” (Epizyme, Inc., priority 2013, dated 2020).

System: asymmetric di-methyl PABP1 in RKO cells
Test: RKO methylation assay, In Cell Western (ICW) for asymmetric di-methyl PABP1
Assay type: cell-based
Details: Homo sapiens, RKO, Cellular potencies, ICW PABP1me2a
How it was run: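 In-cell Western on fixed RKO cells after 48 h compound exposure: anti-asymmetric di-methyl PABP1 signal at 800 nm over DRAQ5 DNA signal at 700 nm. Percent inhibition set between DMSO wells and wells with 20 μM reference compound; IC50 curves fitted in triplicate.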

Row | Compound | IC50 [µM]
1 | CNCC(O)COc1cccc(-c2nc(NC3CCCN(C(=O)C4CC4)C3)c(C)c(-c3c(C)noc3C)n2)c1 (centres unmarked) [Example 247-1a] | < 5
2 | CNC[C@@H](O)COc1ccc(C(F)(F)F)c(-c2nc(-c3c(C)noc3C)c(C)c(N3Cc4cncnc4C3)n2)c1 [Example 247-3] | < 5
3 | CNCC(O)COc1cccc(-c2nc(NCC3CCN(C(=O)N(C)C)CC3)c(C)c(-c3c(C)noc3C)n2)c1 (centres unmarked) [Example 248-1a] | < 5
4 | CNC[C@@H](O)COc1ccc(Cl)c(-c2nc(-c3c(C)noc3C)c(C)c(N3Cc4cc(Br)cnc4C3)n2)c1 [Example 248-3] | < 5
5 | CNCC(O)COc1cccc(-c2nc(NCC3CCN(C(=O)C4CC4)CC3)c(C)c(-c3c(C)noc3C)n2)c1 (centres unmarked) [Example 249-1a] | < 5
6 | CNC[C@@H](O)COc1ccc(Cl)c(-c2nc(-c3c(C)noc3C)cc(N3CC4(CCOCC4)C3)n2)c1 [Example 249-3] | < 5
7 | CNCC(O)COc1cccc(-c2nc(N[C@@H]3CCC[C@@H]3O)c(C)c(-c3c(C)noc3C)n2)c1 (some centres unmarked) [Example 250-1a] | < 5
8 | CNC[C@@H](O)COc1ccc(Cl)c(-c2nc(-c3c(C)noc3C)cc(N3Cc4cnn(C)c4C3)n2)c1 [Example 250-3] | < 5
9 | CNCC(O)COc1cccc(-c2nc(-c3c(C)noc3C)c(C)c(N3CCC4(CC3)CN(C(=O)OC)C4)n2)c1 (centres unmarked) [Example 251-1a] | < 5
10 | CNC[C@@H](O)COc1ccc(Cl)c(-c2nc(-c3c(C)noc3C)cc(N3Cc4nccnc4C3)n2)c1 [Example 251-3] | < 5
11 | CNCC(O)COc1cccc(-c2nc(-c3c(C)noc3C)c(C)c(N3CCC4(CC3)CN(C(=O)N(C)C)C4)n2)c1 (centres unmarked) [Example 252-1a] | < 5
12 | CNC[C@@H](O)COc1ccc(Cl)c(-c2nc(-c3c(C)noc3C)c(C)c(N3Cc4nn(C)c(C)c4C3)n2)c1 [Example 252-3] | < 5
13 | CCS(=O)(=O)N1CC2(CCN(c3nc(-c4cccc(OCC(O)CNC)c4)nc(-c4c(C)noc4C)c3C)CC2)C1 (centres unmarked) [Example 253-1a] | < 5
14 | CCO[C@@H]1CCC[C@@H]1Nc1nc(-c2cc(OC[C@H](O)CNC)ccc2Cl)nc(-c2c(C)noc2C)c1C [Example 253-3] | < 5
15 | CNCC(O)COc1cccc(-c2nc(N[C@H]3C[C@H](O)C3)c(C)c(-c3c(C)noc3C)n2)c1 (some centres unmarked) [Example 254-1a] | < 5
16 | CCO[C@@H]1CCC[C@@H]1N(CC)c1nc(-c2cc(OC[C@H](O)CNC)ccc2Cl)nc(-c2c(C)noc2C)c1C [Example 254-3] | 5 to 10
17 | CNCC(O)COc1cccc(-c2nc(N[C@H]3C[C@@](C)(O)C3)c(C)c(-c3c(C)noc3C)n2)c1 (some centres unmarked) [Example 255-1a] | < 5
18 | CCO[C@H]1CCC[C@H]1N(CC)c1nc(-c2cc(OC[C@H](O)CNC)ccc2Cl)nc(-c2c(C)noc2C)c1C [Example 255-3] | 5 to 10
19 | CNCC(O)COc1cccc(-c2nc(N[C@H]3C[C@@H](O)C3)c(C)c(-c3c(C)noc3C)n2)c1 (some centres unmarked) [Example 256-1a] | < 5
20 | CNCC(O)COc1cccc(-c2nc(NC3CCOCC3)c(C)c(-c3c(CO)noc3C)n2)c1 (centres unmarked) [Example 256-3] | 5 to 10
21 | CNC[C@@H](O)COc1ccc(Cl)c(-c2nc(N[C@@H]3CCO[C@@H](C)C3)c(C)c(-c3c(C)noc3C)n2)c1 [Example 257-3] | < 5
22 | CNCC(O)COc1cccc(-c2nc(NC[C@H]3COCCN3C(=O)N(C)C)c(C)c(-c3c(C)noc3C)n2)c1 (some centres unmarked) [Example 258-1a] | 5 to 10

Row | Compound | IC50 [µM]
23 | CNC[C@@H](O)COc1ccc(Cl)c(-c2nc(NC3CCN(C)CC3(F)F)c(C)c(-c3c(C)noc3C)n2)c1 (some centres unmarked) [Example 258-3] | < 5
24 | CNCC(O)COc1cccc(-c2nc(OCC3CCN(C(=O)OCc4ccccc4)CC3)c(C)c(-c3c(C)noc3C)n2)c1 (centres unmarked) [Example 259-1a] | < 5
25 | CNC[C@@H](O)COc1ccc(Cl)c(-c2nc(-c3c(C)noc3C)c(C)c(N3Cc4cnc(C5CC5)nc4C3)n2)c1 [Example 259-3] | < 5
26 | CNCC(O)COc1cccc(-c2nc(N[C@@H]3CCN(C4CC4)C[C@@H]3F)c(C)c(-c3c(C)noc3C)n2)c1 (some centres unmarked) [Example 260-1a] | < 5
27 | CNC[C@@H](O)COc1ccc(F)c(-c2nc(-c3c(C)noc3C)c(C)c(N3Cc4cncnc4C3)n2)c1 [Example 260-3] | < 5
28 | CNCC(O)COc1cccc(-c2nc(N[C@@H]3CCN(C4CC4)C[C@H]3F)c(C)c(-c3c(C)noc3C)n2)c1 (some centres unmarked) [Example 261-1a] | < 5
29 | CNC[C@@H](O)COc1ccc(Cl)c(-c2nc(-c3c(C)noc3C)c(F)c(N3CC4(CCOCC4)C3)n2)c1 [Example 261-3] | < 5
30 | CNCC(O)COc1cccc(-c2nc(NCC3CCN(C4COC4)CC3)c(C)c(-c3c(C)noc3C)n2)c1 (centres unmarked) [Example 262-1a] | < 5
31 | CNCC(O)COc1cccc(-c2nc(NC3CCN(C4COC4)CC3)c(C)c(-c3c(C)noc3C)n2)c1 (centres unmarked) [Example 263-1a] | < 5
32 | CNC[C@@H](O)COc1ccc(Cl)c(-c2nc(-c3c(C)noc3C)c(C)c(N3Cc4cnc(C(F)(F)F)nc4C3)n2)c1 [Example 263-3] | < 5
33 | CNCC(O)COc1cccc(-c2nc(NC3CN(C(=O)C4CC4)C3)c(C)c(-c3c(C)noc3C)n2)c1 (centres unmarked) [Example 264-1a] | 5 to 10
34 | CNC[C@@H](O)COc1ccc(Cl)c(-c2nc(-c3c(C)noc3C)c(C)c(N3Cc4cnc(C(C)C)nc4C3)n2)c1 [Example 264-3] | < 5
35 | CNCC(O)COc1cccc(-c2nc(N[C@@H]3C[C@H]4CC[C@@H](C3)N4C(=O)OC)c(C)c(-c3c(C)noc3C)n2)c1 (some centres unmarked) [Example 265-1a] | < 5
36 | CNC[C@@H](O)COc1ccc(Cl)c(-c2nc(-c3c(C)noc3C)c(C)c(N3Cc4cnn(CC(F)(F)F)c4C3)n2)c1 [Example 265-3] | < 5
37 | CNCC(O)COc1cccc(-c2nc(N[C@H]3C[C@H]4CC[C@@H](C3)N4C(=O)OC)c(C)c(-c3c(C)noc3C)n2)c1 (some centres unmarked) [Example 266-1a] | < 5
38 | CNC[C@@H](O)COc1ccc(F)c(-c2nc(-c3c(C)noc3C)c(C)c(N3Cc4cccc(F)c4C3)n2)c1 [Example 266-3] | < 5
39 | CNCC(O)COc1cccc(-c2nc(N[C@H]3COC(=O)C3)c(C)c(-c3c(C)noc3C)n2)c1 (some centres unmarked) [Example 267-1a] | 10 to 20
40 | CNC[C@@H](O)COc1ccc(Cl)c(-c2nc(-c3c(C)noc3C)c(C)c(N3Cc4cccc(F)c4C3)n2)c1 [Example 267-3] | < 5
41 | CNCC(O)COc1cccc(-c2nc(N[C@@H]3COC(=O)C3)c(C)c(-c3c(C)noc3C)n2)c1 (some centres unmarked) [Example 268-1a] | 10 to 20
42 | CNC[C@@H](O)COc1ccc(Cl)c(-c2nc(-c3c(C)noc3C)c(C)c(C3CCOCC3)n2)c1 [Example 268-3] | < 5
43 | CNCC(O)COc1cccc(-c2nc(NC3CCOCC3C)c(C)c(-c3c(C)noc3C)n2)c1 (centres unmarked) [Example 269-1a] | < 5
44 | CNC[C@@H](O)COc1ccc(F)c(-c2nc(-c3c(C)noc3C)c(C)c(N3CC4(CCCCO4)C3)n2)c1 [Example 269-3] | < 5

Row | Compound | IC50 [µM]
45 | CNCC(O)COc1ccc(Cl)c(-c2nc(NC3CCN(C(=O)OC)CC3)c(C)c(-c3c(C)noc3C)n2)c1 (centres unmarked) [Example 270-1a] | < 5
46 | CNC[C@@H](O)COc1ccc(Cl)c(-c2nc(-c3c(C)noc3C)c(C)c(N3Cc4cnn(C5CC5)c4C3)n2)c1 [Example 270-3] | < 5
47 | CNCC(O)COc1cccc(-c2nc(N[C@@H]3CCOC[C@@H]3F)c(C)c(-c3c(C)noc3C)n2)c1 (some centres unmarked) [Example 271-1a] | < 5
48 | CNC[C@@H](O)COc1ccc(Cl)c(-c2nc(-c3c(C)noc3C)c(C)c(N3Cc4cn(C(C)C)nc4C3)n2)c1 [Example 272-3] | < 5
49 | CCS(=O)(=O)N1CC(Nc2nc(-c3cccc(OCC(O)CNC)c3)nc(-c3c(C)noc3C)c2C)C1 (centres unmarked) [Example 273-1a] | 10 to 20
50 | CNCC(O)COc1ccc(Cl)c(-c2nc(NC3CCOCC3)c(C)c(-c3c(CO)noc3C)n2)c1 (centres unmarked) [Example 273-3] | 5 to 10
51 | CNCC(O)COc1cccc(-c2nc(NC[C@H]3COCCN3CC(F)F)c(C)c(-c3c(C)noc3C)n2)c1 (some centres unmarked) [Example 274-1a] | < 5
52 | CNC[C@@H](O)COc1ccc(F)c(-c2nc(-c3c(C)noc3C)cc(N3Cc4nccnc4C3)n2)c1 [Example 274-3] | < 5
53 | CNCC(O)COc1cccc(-c2nc(NC3CN(C(=O)OC)C3)c(C)c(-c3c(C)noc3C)n2)c1 (centres unmarked) [Example 275-1a] | 10 to 20
54 | CNC[C@@H](O)COc1ccc(F)c(-c2nc(-c3c(C)noc3C)cc(N3Cc4cnn(C)c4C3)n2)c1 [Example 275-3] | < 5
55 | CCc1onc(C)c1-c1nc(-c2cccc(OCC(O)CNC)c2)nc(NC2CCOCC2)c1C (centres unmarked) [Example 276-1a] | < 5
56 | CCOC(=O)N1CCOC[C@@H]1CNc1nc(-c2cccc(OC[C@H](O)CNC)c2)nc(-c2c(C)noc2C)c1C [Example 277-1a] | < 5
57 | CNC[C@@H](O)COc1ccc(F)c(-c2nc(-c3c(C)noc3C)cc(N3CC4(CCOCC4)C3)n2)c1 [Example 277-3] | < 5
58 | CCOC(=O)N1CCOC[C@@H]1CNc1nc(-c2cccc(OC[C@@H](O)CNC)c2)nc(-c2c(C)noc2C)c1C [Example 278-1a] | < 5
59 | CNC[C@@H](O)COc1cccc(-c2nc(NC3CCN(C(=O)OC)CC3)cc(-c3c(C)nnn3C)n2)c1 [Example 278-3] | 10 to 20
60 | CNCC(O)COc1cccc(-c2nc(N[C@H]3CCOC[C@@H]3F)c(C)c(-c3c(C)noc3C)n2)c1 (some centres unmarked) [Example 279-1a] | < 5
61 | CNC[C@@H](O)COc1ccc(Cl)c(-c2nc(-c3c(C)noc3C)c(C)c(N3Cc4[nH]c(=O)[nH]c(=O)c4C3)n2)c1 [Example 279-3] | 10 to 20
62 | CNCC(O)COc1cccc(-c2nc(NC3C[C@@H](O)[C@H](O)C3)c(C)c(-c3c(C)noc3C)n2)c1 (some centres unmarked) [Example 280-1a] | 10 to 20
63 | CNC[C@@H](O)COc1ccc(F)c(-c2nc(-c3c(C)noc3C)c(C)c(N3CC4(CCN(CC(F)F)CC4)C3)n2)c1 [Example 280-3] | < 5
64 | CNCC(O)COc1cccc(-c2nc(N[C@H]3CCOC3=O)c(C)c(-c3c(C)noc3C)n2)c1 (some centres unmarked) [Example 281-1a] | 10 to 20
65 | CNC[C@@H](O)COc1ccc(F)c(-c2nc(-c3c(C)noc3C)c(C)c(N3CC4(CCN(C(=O)OC(C)C)CC4)C3)n2)c1 [Example 281-3] | < 5
